Here are results for one compound from US10653658B2, “Biofilm inhibiting compositions enhancing weight gain in livestock” (Akeso Biomedical, Inc., priority 2015, dated 2020).

The structures appear in SMILES notation.

One test relates to E. coli. As to the kind of experiment: E. coli cfu/g of caeca at day 42 (Example 10). Format: in vivo. As to the method:
(§1) A study was performed to evaluate growth promotion and reduction of Campylobacter carriage using FeTyr in Ross 308 male broilers with 7 treatment groups. Each treatment group comprised eight replicates of 10 birds per pen (80 birds/treatment group), with 2 control groups and […]. All the test groups and both of the control groups were exposed at day 20 of the trial to dirty litter, which tested positive for Campylobacter. This method was used to provide a more natural method to Campylobacter challenge the birds. Thus there were two positive controls where each treatment group was challenged with Campylobacter, and five treatment groups that were all challenged with Campylobacter. The total number of birds used in the 7 treatment groups was 560.
(§2) At day 20, litter, which was naturally Campylobacter-contaminated, was tested to confirm the presence of Campylobacter, and then added (approximately 2 kg/pen) to the litter in all pens. At day 42, caecal samples were taken and tested for Campylobacter, E. coli and Salmonella enumeration.

The nature of test [1]: Growth performance of broilers given FeQ or FeTyr in water/feed, dirty litter Campylobacter challenge at day 20 (Example 1). Format: in vivo, Ross 308 male broilers. As to the method:
(§3) A study was performed to evaluate growth promotion and reduction of Campylobacter carriage using FeQ and FeTyr in Ross 308 male broilers with 7 treatment groups. Each treatment group comprised four replicates of 10 birds per pen (40 birds/treatment group and 4 pens of 10 birds/treatment group), with 2 control groups and 5 test groups. All the test groups and one of the control groups were exposed at day 20 of the trial to dirty litter, which tested positive for Campylobacter. This method was used to provide a more natural method to Campylobacter challenge the birds. Thus there was a positive control where one treatment group was challenged with Campylobacter and one negative control group where the birds were not challenged, and five treatment groups that were all challenged with Campylobacter. The total number of birds used in the 7 treatment groups was 280. Treatment group 1 was a negative control where birds just received the commercial feed, and were not challenged with dirty litter containing Campylobacter. Treatment group 2 was the positive control where the birds received the commercial feed, and were challenged with dirty litter containing Campylobacter at day 20. Treatment group 3 received 0.22 g/L of FeQ in their drinking water and 0.22 g/Kg FeQ in their feed during the entire trial, and was challenged with dirty litter containing Campylobacter at day 20. Treatment group 5 received 0.22 g/L of FeQ in their drinking water during the entire trial, and was challenged with dirty litter containing Campylobacter at day 20. Treatment group 6 received 0.22 g/kg FeQ in their feed during the entire trial, and was challenged with dirty litter containing Campylobacter at day 20. Treatment group 7 received 0.022 g/L FeQ in their drinking water during the entire trial, and was challenged with dirty litter containing Campylobacter at day 20. Treatment group 8 received 0.02 g/L FeTyr in their drinking water during the entire trial, and was challenged with dirty litter containing Campylobacter at day 20. The FeTyr was pre-dissolved in DMSO, and diluted to provide a solution of 0.02 g/L of FeTyr in water. (An additional treatment group 4 was terminated due to solubility issues.)
The birds were fed with a commercial three-phase feeding program using starter, grower and finisher feeds with formulations shown in Table 2. All diets had coccidiostat (MAXIBAN® at 0.0625% in starter and […] and MONTEBAN® at 0.06% in finisher phase). Xylanase (RONOZYME® WX at 200 g per ton) and phytase (RONOZYME® P at 150 grams per ton) were added to all diets.
The feeding program is show in Table 3. The birds were reared in floor pens to day 42, and fed starter, grower and finisher feed at day 0 to 11, 11 to 24, and 24 to 42 days, respectively. All birds were weighed individually and feed weigh backs recorded per pen at day 0, 11, 21, 24 and 42 days.
Prior to challenging the chickens with dirty litter containing Campylobacter at day 20, each pen was tested for Campylobacter using cloacal swabs. All pens tested negative for Campylobacter prior to the challenge. At day 20, litter, which was naturally Campylobacter-contaminated, was tested to confirm the presence of Campylobacter, and then added (approximately 2 kg/pen) to the litter in all pens except in pens for treatment group 1 (the negative control). At day 28, the pen litter was sampled to confirm the presence or absence of Campylobacter. At day 41 and 42, caecal samples were taken from 3 birds per pen (12 birds per treatment group) and tested for Campylobacter enumeration. At day 42, digesta, fecal samples, and caecal content was taken from all birds, and pooled per pen. Two birds per pen were also taken from treatment groups 1-3, euthanized, and blood samples taken. […]

A short description of test [2]: Dose ranging study of FeTyr (TYPLEX) in feed, zootechnical performance of broilers, dirty litter challenge at day 20 (Example 10). Format: in vivo, Ross 308 male broilers. The settings on record: all treatment groups, in feed. On the procedure: as §1
Treatment group 1 was a positive control where birds just received the commercial feed, and were challenged with dirty litter containing Campylobacter at day 20. Treatment group 2 received 0.01 g/kg of TYPLEX (FeTyr) in their feed, and were challenged with dirty litter containing Campylobacter at day 20. Treatment group 3 received 0.02 g/kg of TYPLEX (FeTyr) in their feed, and was challenged with dirty litter containing Campylobacter at day 20. Treatment group 4 received 0.05 g/kg of TYPLEX (FeTyr) in their feed, and was challenged with dirty litter containing Campylobacter at day 20. Treatment group 5 received 0.1 g/kg of TYPLEX (FeTyr) in their feed, and was challenged with dirty litter containing Campylobacter at day 20. Treatment group 6 received 0.2 g/kg of TYPLEX (FeTyr) in their feed, and was challenged with dirty litter containing Campylobacter at day 20. […] The birds were fed with a commercial three-phase feeding program using starter, grower and finisher feeds as described in Example 1. The birds were reared in floor pens to day 42, and fed starter, grower and finisher feed at day 0 to 11, 11 to 24, and 24 to 42 days, respectively. All birds were weighed individually and feed weigh backs recorded per pen at day 0, 11, 21, 24 and 42 days.
as §2
In order to minimize risk of cross-contamination, standard industry biosecurity measures were used including: disinfecting boots, changing overshoes and gloves between pens/treatments, entering Campylobacter negative pens before entering Campylobacter positive pens, and leaving adjacent pens empty. Daily health, culls, and mortality were recorded. All bird weights were recorded at 0, 11, 21, 24, 33 and 42 days. Weight gains, feed intake and feed conversion ratio (FCR) were derived for each feeding period.

In test [3] the test system is Campylobacter. As to the kind of experiment: Campylobacter carriage in chickens, cfu/g of droppings and caeca at day 42 (Example 1). Format: in vivo. On the procedure: as §3
Prior to challenging the chickens with dirty litter containing Campylobacter at day 20, each pen was tested for Campylobacter using cloacal swabs. All pens tested negative for Campylobacter prior to the challenge. At day 20, litter, which was naturally Campylobacter-contaminated, was tested to confirm the presence of Campylobacter, and then added (approximately 2 kg/pen) to the litter in all pens except in pens for treatment group 1 (the negative control). At day 28, the pen litter was sampled to confirm the presence or absence of Campylobacter. At day 41 and 42, caecal samples were taken from 3 birds per pen (12 birds per treatment group) and tested for Campylobacter enumeration. At day 42, digesta, fecal samples, and caecal content was taken from all birds, and pooled per pen. Two birds per pen were also taken from treatment groups 1-3, euthanized, and blood samples taken. Samples were analyzed for blood chemistry, including analysis for alkaline phosphatase, aspartate amino transferase, alanine amino transferase, gamma-glutamyl transferase, lactate dehydrogenase, total protein, albumin, globulin, amylase and glucose.

The next test has as its system Salmonella. Nature of the test: Salmonella cfu/g of caeca at day 42 (Example 10). Type of test: in vivo. The following applies: in feed. As to the method: as §1, §2
Test [4] relates to Campylobacter. Nature of the test: Campylobacter cfu/g of caeca at day 42 (Example 10). Type of test: in vivo. The settings on record: in feed. On the procedure:
as §1, §2

For the compound `N[C@@H](Cc1ccc(O)cc1)C(=O)O.[Fe+3]` [FeTyr, ferric tyrosine], the “E. coli cfu/g of caeca at day 42 (FIG. 16)” value with E. coli (in feed) is given as “positive effect on reducing Campylobacter infection”. For the same compound, in the test on E. coli (poultry data), the “levels of E. coli in poultry upon treatment” value is given as “lower levels of E. coli”. In addition, the “effect on growth performance in the absence of Campylobacter challenge, first 20 days” value in test [1] (compared with control groups 1 and 2) is given as “positive effect”. In addition, the “effect on MFCR at day 42 compared with positive control (FIG. 2)” value in test [1] (treatment groups 3, 5, 6, 7 and 8, challenged with dirty litter) was “positive effect on MFCR”. Moreover, in test [1] (treatment groups 3, 5, 6, 7 and 8, challenged with dirty litter containing Campylobacter), the “effect on growth: average body weight at day 42 compared with positive control (FIG. 1)” value was “positive effect on growth”. In addition, in test [2], the “MFCR at day 42 compared to control group (FIG. 13)” value was “improved MFCR values” and the “average body weight at day 42 compared with control group (FIG. 12)” value is “higher average body weight”. Moreover, the “Campylobacter cfu/g of caeca samples at day 42 compared with positive control (FIG. 4)” value with Campylobacter [3] (treatment groups 3 and 5-8) is reported as “positive effect on reducing Campylobacter infection”. In addition, in the test with Campylobacter [3] (treatment groups 3 and 6-8), the “Campylobacter cfu/g of bird droppings at day 42 compared with positive control (FIG. 3)” value is listed as “positive effect on reducing Campylobacter infection”. Besides, in the test with Salmonella, the “Salmonella cfu/g of caeca at day 42 (FIG. 15)” value is recorded as “positive effect on reducing Campylobacter infection”. Also, the “Campylobacter cfu/g of caeca at day 42 (FIG. 14)” value in the test with Campylobacter [4] is on record as “positive effect on reducing Campylobacter infection”.
